Data: patent publication US9045551B2, “Anti-DLL4/VEGF dual variable domain immunoglobulin and uses thereof” (AbbVie Inc., priority 2012, dated 2015)
Marks after values point to notes of the source that are not given here.

Key:
[1] = tested on: U87-MG human glioblastoma xenograft tumors; experiment: U87-MG glioblastoma xenograft, combination with temozolomide (Example 11); format: in vivo, female SCID mice; details: 5 mg/kg IP, qdX1
Protocol: (§1) The effect of anti-DLL4-VEGF DVD-Igs in combination with chemotherapy on tumor growth was evaluated on U87-MG human glioblastoma xenograft tumors in female SCID mice. Briefly, 3×10^6 cells were inoculated subcutaneously into the right hind flank. Tumors were allowed to establish for 13 days, at which point tumor volume was determined using electronic caliper measurements using the formula: L×W^2/2. Mice were allocated into treatment groups (n=10 per group) so that each cohort had equivalent mean tumor volume of 207 mm^3 prior to initiation of therapy. Animals were dosed with temozolomide, anti-VEGF mAb, and/or anti-DLL4-VEGF DVD-Ig at the dose and schedule in Table 30. Tumor volume was measured twice a week for the duration of the experiment.

[2] = tested on: U87-MG human glioblastoma xenograft tumors; experiment: U87-MG glioblastoma xenograft, combination with Temozolomide (Example 6); format: in vivo, female SCID mice; details: 5 mg/kg IP
Protocol: The effect of anti-DLL4/anti-VEGF DVDs in combination with chemotherapy on tumor growth was evaluated on U87-MG human glioblastoma xenograft tumors in female SCID mice. Briefly, 3×10^6 cells were inoculated subcutaneously into the right hind flank. Tumors were allowed to establish for 22 days, at which point tumor volume was determined using electronic caliper measurements using the formula: L×W^2/2. Mice were allocated into treatment groups (n=10 per group) so that each cohort had equivalent mean tumor volume of 207 mm^3 prior to initiation of therapy. Animals were dosed intraperitoneally with a single dose of Temozolomide® and/or four weekly doses of anti-DLL4/anti-VEGF DVD, with tumor volume measured twice a week for the duration of the experiment.

[3] = tested on: PA0123 patient-derived human pancreatic xenograft tumors; experiment: PA0123 patient-derived pancreatic xenograft, combination with gemcitabine; format: in vivo, female NSG mice; details: 100 mg/kg IP, [q3dX4]X2
Protocol: The effect of anti-DLL4-VEGF DVD-Igs in combination with chemotherapy on tumor growth was evaluated on PA0123 patient-derived human pancreatic xenograft tumors in female NSG mice. Briefly, frozen tumor fragments were implanted subcutaneously into the right hind flank. Tumors were allowed to establish for 28 days, at which point tumor volume was determined using electronic caliper measurements using the formula: L×W^2/2. Mice were allocated into treatment groups (n=7 per group) so that each cohort had equivalent mean tumor volume of 193 mm^3 prior to initiation of therapy. Animals were dosed with gemcitabine and/or anti-DLL4-VEGF DVD-Ig, at the dose and schedule in Table 31. Tumor volume was measured twice a week for the duration of the experiment.

[4] = tested on: HT-29 human colon xenograft tumors; experiment: HT-29 colon xenograft, combination with irinotecan; format: in vivo, female SCID mice; details: 60 mg/kg IP, q3dX4
Protocol: The effect of anti-DLL4-VEGF DVD-Igs in combination with chemotherapy on tumor growth was evaluated on HT-29 human colon xenograft tumors in female SCID mice. Briefly, 2×10^6 cells were inoculated subcutaneously into the right hind flank. Tumors were allowed to establish for 25 days, at which point tumor volume was determined using electronic caliper measurements using the formula: L×W^2/2. Mice were allocated into treatment groups (n=10 per group) so that each cohort had equivalent mean tumor volume of 209 mm^3 prior to initiation of therapy. Animals were dosed with irinotecan and/or anti-DLL4-VEGF DVD-Ig, at the dose and schedule in Table 29. Tumor volume was measured twice a week for the duration of the experiment.

[5] = tested on: SW-48 human colon xenograft tumors; experiment: SW-48 colon xenograft, combination with irinotecan; format: in vivo, female SCID mice; details: 60 mg/kg IP, q3dX4
Protocol: as §1, with “SW-48” for “U87-MG”, “colon” for “glioblastoma”, “5×10^6” for “3×10^6”, “211” for “207”, “irinotecan,” for “temozolomide,”, “27.” for “30.”

[6] = tested on: SUM149PT human breast xenograft tumors; experiment: SUM149PT breast xenograft, combination with paclitaxel (Table 33); format: in vivo, female SCID mice; details: 25 mg/kg IP, [q4dX3]X4
Protocol: (§2) The effect of anti-DLL4-VEGF DVD-Igs in combination with chemotherapy on tumor growth was evaluated on SUM149PT human breast xenograft tumors in female SCID mice. Briefly, 1×10^6 cells were inoculated subcutaneously into the right hind flank. Tumors were allowed to establish for 28 days, at which point tumor volume was determined using electronic caliper measurements using the formula: L×W^2/2. Mice were allocated into treatment groups (n=9 per group) so that each cohort had equivalent mean tumor volume of 183 mm^3 prior to initiation of therapy. Animals were dosed with paclitaxel and/or anti-DLL4-VEGF DVD-Ig, at the dose and schedule in Table 33. Tumor volume was measured twice a week for the duration of the experiment.

[7] = tested on: MDA-MB-231-luc human breast xenograft tumors; experiment: MDA-MB-231-luc breast xenograft, combination with paclitaxel; format: in vivo, female SCID mice; details: 25 mg/kg IP, q4dX3
Protocol: The effect of anti-DLL4-VEGF DVD-Igs in combination with chemotherapy on tumor growth was evaluated on MDA-MB-231-luc human breast xenograft tumors in female SCID mice. Briefly, 2×10^6 cells were implanted in the mammary fat pad. Tumors were allowed to establish for 13 days, at which point tumor volume was determined using electronic caliper measurements using the formula: L×W^2/2. Mice were allocated into treatment groups (n=10 per group) so that each cohort had equivalent mean tumor volume of 150 mm^3 prior to initiation of therapy. Animals were dosed with paclitaxel and/or anti-DLL4-VEGF DVD-Ig, at the dose and schedule in Table 32. Tumor volume was measured twice a week for the duration of the experiment. Additionally, bioluminescent images were acquired to monitor and track spontaneous metastasis of cancer cell to the lung and/or lymph nodes Results are shown in Table 32.

[8] = tested on: SUM149PT human breast xenograft tumors; experiment: SUM149PT breast xenograft, combination with paclitaxel and anti-VEGF mAb (Table 34); format: in vivo, female SCID mice; details: 25 mg/kg IP, [q4dX3]X4; day 18 post size match
Protocol: as §2, with “25” for “28”, “(n=10” for “(n=9”, “228” for “183”, “paclitaxel, anti-VEGF mAb” for “paclitaxel”, “34.” for “33.”

human DLL4529 = molecular target: T1, human DLL4529 (Homo sapiens, UniProt Q9NR61); experiment: BIACORE surface plasmon resonance binding kinetics, human DLL4; details: BIAcore human DLL4529, 25° C.
T1 construct: a purified recombinant DLL4 extracellular domain (ECD)
Protocol: A BIACORE assay (Biacore, Inc, Piscataway, N.J.) was used to evaluate the binding of DVDs to a purified recombinant DLL4 extracellular domain (ECD) or to VEGF165, as determined by surface plasmon resonance-based measurements made on a Biacore 2000, Biacore 3000 or Biacore T100 (GE Healthcare, Piscataway, N.J.) at 25° C. For DLL4 binding kinetic measurements the assay buffer was HBS-EPB: 10 mM Hepes, pH7.5, 150 mM NaCl, 3 mM EDTA, 0.005% Tween 20, 0.1 mg/ml BSA (Sigma A7906). For VEGF binding kinetic measurements the assay buffer was HBS-EP+(3N01B): 10 mM Hepes, pH7.5, 300 mM NaCl, 3 mM EDTA, 0.05% Tween 20, 0.1 mg/ml BSA (Sigma A7906). For example, approximately 9000 RU of goat anti-human Fc specific polyclonal antibody (Thermo Fisher Scientific Inc., Rockford, Ill.) diluted in 10 mM sodium acetate (pH 4.5) is directly immobilized across a CM5 research grade biosensor chip using a standard amine coupling kit according to manufacturer's instructions and procedures at 25 ug/ml. […] The equilibrium dissociation constant KD (M) of the reaction between antibodies and the target antigen is then calculated from the kinetic rate constants by the following formula: KD=Koff/Kon. Binding is recorded as a function of time and kinetic rate constants are calculated. In this assay, on-rates as fast as 10^6 M^−1s^−1 and off-rates as slow as 10^−6 s^−1 can be measured.

Molecule: Cn1nnc2c(C(N)=O)ncn2c1=O [Temozolomide, reference compound]
- % TGI (Percent tumor growth inhibition) ([1]; day 19 post size match): 65*** %
- % TGD (Percent tumor growth delay) ([1]; endpoint of 1000 mm^3): 45*** %
- % TGI (Percent tumor growth inhibition) ([2]; qdX1, day 19 post size match): 65*** %
- % TGD (Percent tumor growth delay) ([2]; qdX1, endpoint of 1000 mm^3): 45*** %

Molecule: Nc1ccn([C@@H]2O[C@H](CO)[C@@H](O)C2(F)F)c(=O)n1 [gemcitabine, reference compound]
- % TGI (Percent tumor growth inhibition) ([3]; day 38 post size match): 48** %
- % TGD (Percent tumor growth delay) ([3]; endpoint of 1000 mm^3): 43** %

Molecule: CCc1c2c(nc3ccc(OC(=O)N4CCC(N5CCCCC5)CC4)cc13)-c1cc3c(c(=O)n1C2)COC(=O)[C@]3(O)CC [irinotecan, reference compound]
- % TGI (Percent tumor growth inhibition) ([4]; day 20 post size match): 47* %
- % TGD (Percent tumor growth delay) ([4]; endpoint of 1000 mm^3): 60* %
- % TGI (Percent tumor growth inhibition) ([5]; day 18 post size match): 77*** %
- % TGD (Percent tumor growth delay) ([5]; endpoint of 1000 mm^3): 106*** %

Molecule: CC(=O)O[C@H]1C(=O)[C@@]2(C)[C@H]([C@H](OC(=O)c3ccccc3)[C@]3(O)C[C@H](OC(=O)[C@H](O)[C@@H](NC(=O)c4ccccc4)c4ccccc4)C(C)=C1C3(C)C)[C@]1(OC(C)=O)CO[C@@H]1C[C@@H]2O [paclitaxel, reference compound]
- % TGI (Percent tumor growth inhibition) ([6]; day 22 post size match): 60*** %
- % TGD (Percent tumor growth delay) ([6]; endpoint of 1000 mm^3): 173*** %
- % met incidence (Percent of animals with detectable signal in the lung and/or lymph nodes) ([7]; bioluminescent imaging, day 22 post size match, treatment control group 100%): 40* %
- % TGI (Percent tumor growth inhibition) ([7]; day 15 post size match): 78*** %
- % TGD (Percent tumor growth delay) ([7]; endpoint of 1000 mm^3): 106*** %
- % TGI (Percent tumor growth inhibition) [8]: 50* %

B1: h1A11.1: humanized anti-DLL4 mAb, parent antibody; VH SEQ ID NO: 39, VL SEQ ID NO: 40 (antibody, V domains shown)
VH: EVQLVESGGGLVQPGGSLRLSCAASGFTFSNFPMAWVRQAPGKGLEWVATISSSDGTTYYRDSVKGRFTISRDNAKNSLYLQMNSLRAEDTAVYYCARGYYNSPFAYWGQGTLVTVSS
VL: DIQMTQSPSSLSASVGDRVTITCRASEDIYSNLAWYQQKPGKAPKLLIYDTNNLADGVPSRFSGSGSGTDFTLTISSLQPEDFATYYCQQYNNYPPTFGQGTKLEIKR
- Koff (human DLL4529): 0.00193 s⁻¹
- Kon (human DLL4529): 160000 M⁻¹ s⁻¹
